Measured values from article PMC9223764, “In Vitro Selection and Characterization of HIV-1 Variants with Increased Resistance to LP-40, Enfuvirtide-Based Lipopeptide Inhibitor” (International Journal of Molecular Sciences, 2022).
Where a SMILES comes first, the peptide text is derived from it. The star is where a group is joined. Palmitoyl = CCCCCCCCCCCCCCCC(=O)*

What was measured:
Type in all cases: cell-based
[1] = system: LP40-V1 pseudovirus (HIV-1 NL4-3 Env mutant); details: for IC50: LP40-V1 (Env selected at LP-40 0.3 µM), TZM-bl cells, 48 h, luciferase, mean ± SD, triplicate, repeated three times
Protocol: (§1) To simulate the sequence changes of viral resistance genes under different drug concentration pressures, we constructed the Env genes under different drug concentration pressures in the PCDNA3.1 vector and obtained a series of mutations. […] T20-V 6~12, T20-V 13~14, and T 20-V 15~18 were constructed at concentrations of 200 µM (P21), 400 µM (P24), and 2000 µM (P32), respectively. Similarly, the LP-40 pressure concentrations were 0.3 µM, 8 µM, 20 µM, and 200 µM, respectively, and the constructs were numbered LP40-V 1~5, LP40-V 6~8, LP40-V 9~11, and LP40-V 12~15. Resistance mutations will cause varying levels of damage to the function of the pseudoviral envelope proteins. Here, we explored how serial mutations affect the function of viral envelope proteins. Based on this problem, we performed a single round of quantitative P24-infection experiments, packaging the pseudovirus with a previously constructed series of mutant plasmids. We compared the invasion ability of the HIV-1 wild-type and mutant pseudoviruses toward target cells under the same P24 content (using the invasion capacity of each subtype as 100%).
(§2) The infectivity of HIV Env mutants and the inhibitory activities of membrane fusion inhibitors on mutants in TZM-bl cells were measured using a single-cycle infection assay as described previously. Briefly, the HIV pseudovirus was packed using an Env-coding plasmid, and pSG3ΔEnv was co-transfected into HEK293T cells. pSG3ΔEnv encodes an Env-defective, luciferase-expressing HIV-1 genome. After the pseudoviruses were harvested and filtrated, the amount of pseudoviruses was fixed via P24 antigen, and their infectivity was determined in TZM-bl cells. In order to measure the inhibitory activities of the inhibitors, inhibitors diluted serially 3-fold were mixed with an equal volume of pseudoviruses, and then 100 µL 1 × 10^5/mL TZM-bl cells were added to the mixture and incubated at 37 °C with 5% CO2 for 48 h. After that, TZM-bl cells were lysed using reporter lysis buffer, and IC50 values were calculated according to luciferase activity measured by luciferase assay reagents and a luminescence counter (Promega, Madison, WI, USA).

[2] = system: LP40-V14 pseudovirus (HIV-1 NL4-3 Env mutant); details: for IC50: LP40-V14 (Env selected at LP-40 200 µM), TZM-bl cells, 48 h, luciferase, mean ± SD, triplicate, repeated three times
Protocol: as §1, §2

[3] = system: T20-V10 pseudovirus (HIV-1 NL4-3 Env mutant); details: for IC50: T20-V10 (Env selected at T20 200 µM, P21), TZM-bl cells, 48 h, luciferase, mean ± SD, triplicate, repeated three times
Protocol: as §1, §2

[4] = system: T20-V8 pseudovirus (HIV-1 NL4-3 Env mutant); details: T20-V8 (Env selected at T20 200 µM, P21); TZM-bl cells, 48 h, luciferase; mean ± SD, triplicate, repeated three times
Protocol: as §1, §2

[5] = system: T20-V14 pseudovirus (HIV-1 NL4-3 Env mutant); details: for IC50: T20-V14 (Env selected at T20 400 µM, P24), TZM-bl cells, 48 h, luciferase, mean ± SD, triplicate, repeated three times
Protocol: as §1, §2

[6] = system: T20-V15 pseudovirus (HIV-1 NL4-3 Env mutant); details: for IC50: T20-V15 (Env selected at T20 2000 µM, P32), TZM-bl cells, 48 h, luciferase, mean ± SD, triplicate, repeated three times
Protocol: as §1, §2

[7] = system: T20-V1 pseudovirus (HIV-1 NL4-3 Env mutant); details: for IC50: T20-V1 (Env selected at T20 12 µM, P9), TZM-bl cells, 48 h, luciferase, mean ± SD, triplicate, repeated three times
Protocol: as §1, §2

[8] = system: LP40-V10 pseudovirus (HIV-1 NL4-3 Env mutant); details: for IC50: LP40-V10 (Env selected at LP-40 20 µM), TZM-bl cells, 48 h, luciferase, mean ± SD, triplicate, repeated three times
Protocol: as §1, §2

[9] = system: T20-V4 pseudovirus (HIV-1 NL4-3 Env mutant); details: for IC50: T20-V4 (Env selected at T20 12 µM, P9), TZM-bl cells, 48 h, luciferase, mean ± SD, triplicate, repeated three times
Protocol: as §1, §2

[10] = system: T20-V3 pseudovirus (HIV-1 NL4-3 Env mutant); details: for IC50: T20-V3 (Env selected at T20 12 µM, P9), TZM-bl cells, 48 h, luciferase, mean ± SD, triplicate, repeated three times
Protocol: as §1, §2

[11] = system: LP40-V11 pseudovirus (HIV-1 NL4-3 Env mutant); details: for IC50: LP40-V11 (Env selected at LP-40 20 µM), TZM-bl cells, 48 h, luciferase, mean ± SD, triplicate, repeated three times
Protocol: as §1, §2

[12] = system: LP40-V9 pseudovirus (HIV-1 NL4-3 Env mutant); details: for IC50: LP40-V9 (Env selected at LP-40 20 µM), TZM-bl cells, 48 h, luciferase, mean ± SD, triplicate, repeated three times
Protocol: as §1, §2

[13] = system: T20-V2 pseudovirus (HIV-1 NL4-3 Env mutant); details: for IC50: T20-V2 (Env selected at T20 12 µM, P9), TZM-bl cells, 48 h, luciferase, mean ± SD, triplicate, repeated three times
Protocol: as §1, §2

[14] = system: T20-V17 pseudovirus (HIV-1 NL4-3 Env mutant); details: for IC50: T20-V17 (Env selected at T20 2000 µM, P32), TZM-bl cells, 48 h, luciferase, mean ± SD, triplicate, repeated three times
Protocol: as §1, §2

[15] = system: T20-V6 pseudovirus (HIV-1 NL4-3 Env mutant); details: for IC50: T20-V6 (Env selected at T20 200 µM, P21), TZM-bl cells, 48 h, luciferase, mean ± SD, triplicate, repeated three times
Protocol: as §1, §2

| Molecule | IC50 [1] | IC50 [2] | IC50 [3] | IC50 [4] | IC50 [5] | IC50 [6] | IC50 [7] | IC50 [8] | IC50 [9] | IC50 [10] | IC50 [11] | IC50 [12] | IC50 [13] | IC50 [14] | IC50 [15] | other results |
| --- | --- | --- | --- | --- | --- | --- | --- | --- | --- | --- | --- | --- | --- | --- | --- | --- |
| CCCCCCCCCCCCCCCC(=O)NCCCC[C@H](NC(=O)[C@H](CC(=O)O)NC(=O)[C@H](CC(C)C)NC(=O)[C@H](CCC(=O)O)NC(=O)[C@H](CC(C)C)NC(=O)[C@H](CC(C)C)NC(=O)[C@H](CCC(=O)O)NC(=O)[C@H](CCC(N)=O)NC(=O)[C@H](CCC(=O)O)NC(=O)[C@H](CC(N)=O)NC(=O)[C@H](CCCCN)NC(=O)[C@H](CCC(=O)O)NC(=O)[C@H](CCC(N)=O)NC(=O)[C@H](CCC(N)=O)NC(=O)[C@H](CC(N)=O)NC(=O)[C@H](CCC(N)=O)NC(=O)[C@H](CO)NC(=O)[C@H](CCC(=O)O)NC(=O)[C@H](CCC(=O)O)NC(=O)[C@@H](NC(=O)[C@H](CC(C)C)NC(=O)[C@H](CO)NC(=O)[C@H](Cc1c[nH]cn1)NC(=O)[C@@H](NC(=O)[C@H](CC(C)C)NC(=O)[C@H](CO)NC(=O)[C@@H](NC(=O)[C@H](Cc1ccc(O)cc1)NC(C)=O)[C@@H](C)O)[C@@H](C)CC)[C@@H](C)CC)C(N)=O [LP-40] (Ac-YTSLIHSLIEESQNQQEKNEQELLELDK(Palmitoyl)-NH2) | 44.9 ± 4.39 nM | > 6250 nM | 6080 ± 1170 nM | > 6250 nM | 2900 ± 85.1 nM | > 6250 nM | 40.1 ± 8.62 nM | 2750 ± 634 nM | 76.6 ± 19.7 nM | 70.5 ± 8.56 nM | 3330 ± 978 nM | 2890 ± 431 nM | 59.2 ± 15.9 nM | 5170 ± 1020 nM | 3510 ± 631 nM | Fold change in IC50 ([1]; LP40-V1 relative to WT NL4-3, Table 1): 1.51 fold; Fold change in IC50 ([2]; LP40-V14 relative to WT NL4-3, Table 1): >227.43 fold; Fold change in IC50 ([3]; T20-V10 relative to WT NL4-3, Table 1): 204.88 fold; Fold change in IC50 ([5]; T20-V14 relative to WT NL4-3, Table 1): 97.57 fold; Fold change in IC50 ([6]; T20-V15 relative to WT NL4-3, Table 1): >227.43 fold; Fold change in IC50 ([7]; T20-V1 relative to WT NL4-3, Table 1): 1.35 fold; Fold change in IC50 ([8]; LP40-V10 relative to WT NL4-3, Table 1): 92.52 fold; Fold change in IC50 ([9]; T20-V4 relative to WT NL4-3, Table 1): 2.58 fold; Fold change in IC50 ([10]; T20-V3 relative to WT NL4-3, Table 1): 2.38 fold; Fold change in IC50 ([11]; LP40-V11 relative to WT NL4-3, Table 1): 112.32 fold; Fold change in IC50 ([12]; LP40-V9 relative to WT NL4-3, Table 1): 97.22 fold; Fold change in IC50 ([13]; T20-V2 relative to WT NL4-3, Table 1): 2.00 fold; Fold change in IC50 ([14]; T20-V17 relative to WT NL4-3, Table 1): 174.12 fold; Fold change in IC50 ([15]; T20-V6 relative to WT NL4-3, Table 1): 118.37 fold |
| Enfuvirtide | 59.8 ± 16.3 nM | 4910 ± 2000 nM | 3340 ± 433 nM | 5280 ± 1100 nM | 4430 ± 967 nM | 2090 ± 248 nM | 57.7 ± 7.23 nM | 1260 ± 264 nM | 53.1 ± 14.9 nM | 78.9 ± 12.1 nM | 4350 ± 522 nM | 1270 ± 315 nM | 147 ± 39.4 nM | 2890 ± 882 nM | 3850 ± 516 nM | – |
